# Assay results as given in US20260070945A1, “MACROCYCLIC IMMUNOMODULATORS” (Bristol-Myers Squibb Company, priority 2022, published 2026).
# *1 amine or outer side, *2 acyl side, *3 side chain or, on linkers, in order; H or OH if unused. Where a SMILES comes first, the peptide text is derived from it. Bridges are numbered along the chain shown (N, C = ends). [ ]: non-standard residue; d: D form. The star is where a group is joined. ξ: configuration not given here. Phe(3-CF3) = N[C@@H](Cc1cccc(C(F)(F)F)c1)C(=O)O; Phe(4-CF3) = N[C@@H](Cc1ccc(C(F)(F)F)cc1)C(=O)O; Ala(morpholin-4-yl) = N[C@@H](CN1CCOCC1)C(=O)O; Phe(4-COOH) = N[C@@H](Cc1ccc(C(=O)O)cc1)C(=O)O; Bip = N[C@@H](Cc1ccc(-c2ccccc2)cc1)C(=O)O; Phe(3-F) = N[C@@H](Cc1cccc(F)c1)C(=O)O; Phe(3-Me) = Cc1cccc(C[C@H](N)C(=O)O)c1; γGlu = O=C(O)[C@H](CCC(=O)[*:2])N[*:1]; NH(CH2)12COOH = O=C(O)CCCCCCCCCCCCN*; Val(3-OH) = CC(C)(O)[C@H](N)C(=O)O; hhGln = NC(=O)CCCC[C@H](N)C(=O)O; 4Pal = N[C@@H](Cc1ccncc1)C(=O)O; Cha = N[C@@H](CC1CCCCC1)C(=O)O; Cit = NC(=O)NCCC[C@H](N)C(=O)O; Ile(3ξ) = CCC(C)[C@H](N)C(=O)O; Thr(3ξ) = CC(O)[C@H](N)C(=O)O; 12Ado = NCCCCCCCCCCCC(=O)O; Carboxymethyl = O=C(O)C*; NMeA = CN[C@@H](C)C(=O)O; Orn = NCCC[C@H](N)C(=O)O; Aun = NCCCCCCCCCCC(=O)O; Dab = NCC[C@H](N)C(=O)O; Nva = CCC[C@H](N)C(=O)O; Dap = NC[C@H](N)C(=O)O; AEEA = NCCOCCOCC(=O)O; Ac3c = NC1(C(=O)O)CC1; Sar = CNCC(=O)O
# Biological target: T1, PD-1/PD-L1 interaction (PE-labeled human PD-L1-Ig binding to Jurkat cell line over-expressing human PD-1) (Homo sapiens, UniProt Q15116)
# T1 construct: expressed in transfected cells; host or cells: Jurkat
# Assay: Jurkat-PD-1 Cell Binding High-Content Screening Assay (CBA)
# Details: Jurkat-hPD-1 cells, PE-labeled PD-L1-Ig 20 nM final; read-out: Jurkat HPD1 PDL1 IC50
# Method in brief: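 Cells 8×10^3/well, DMEM + 10% FCS; cpd 2 h, 37 °C; PE–PD-L1-Ig 20 nM final, 1 h; PFA fix + Hoechst 33342, 3× dPBS wash; high-content imager.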
# T1 sequence (Q15116 25-288): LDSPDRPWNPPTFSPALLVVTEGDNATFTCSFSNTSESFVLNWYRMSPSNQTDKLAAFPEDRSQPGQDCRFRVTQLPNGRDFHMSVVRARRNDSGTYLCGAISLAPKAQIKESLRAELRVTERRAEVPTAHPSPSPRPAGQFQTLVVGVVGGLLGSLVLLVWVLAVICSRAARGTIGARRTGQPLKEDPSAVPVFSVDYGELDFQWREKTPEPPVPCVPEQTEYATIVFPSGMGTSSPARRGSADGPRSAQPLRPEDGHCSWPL
row,Compound,IC50
1,CC(C)C[C@H]1NC(=O)[C@H](C)N(C)C(=O)[C@H](Cc2ccc(OCC(=O)O)cc2)NC(=O)[C@H](Cc2ccc(-c3ccccc3)cc2)NC(=O)[C@H](Cc2ccc(OCC(=O)O)cc2)NC(=O)[C@H](Cc2c[nH]c3ccccc23)NC(=O)[C@H](CC(=O)O)NC(=O)[C@H](Cc2ccc(OCC(=O)O)cc2)NC(=O)[C@H]([C@@H](C)O)NC(=O)CSC[C@@H](C(=O)N[C@@H](CCCN)C(=O)NCCOCCOCC(=O)NCCCCCCCCCCC(=O)O)NC(=O)[C@H](CO)NC(=O)[C@H](C(C)C)NC(=O)[C@H](CC2CCCCC2)NC(=O)[C@H](CC(N)=O)NC1=O [Example 1389] ({CH2CO}-TY(Carboxymethyl)DWY(Carboxymethyl)[Bip]Y(Carboxymethyl)[NMeA][dL]N[Cha]VSC[Orn][AEEA][Aun]-OH; thioether N-14),0.227 µM
2,CCC(C)[C@@H]1NC(=O)[C@H](Cc2ccc(-c3ccccc3)cc2)NC(=O)[C@H](CC(C)C)NC(=O)[C@H](Cc2c[nH]c3ccccc23)NC(=O)[C@H](CC(=O)O)NC(=O)[C@H](Cc2ccc(O)cc2)NC(=O)[C@H](CC(N)=O)NC(=O)CSC[C@@H](C(=O)N[C@@H](C)C(=O)NCCOCCOCC(=O)N[C@@H](CCCN)C(=O)NCCCCCCCCCCC(=O)O)NC(=O)[C@H](CO)NC(=O)[C@H](C(C)C)NC(=O)[C@H](CC2CCCCC2)NC(=O)[C@H](CC(N)=O)NC(=O)[C@@H](CC(C)C)NC(=O)[C@H](C)N(C)C1=O (stereo partly drawn) [Example 2076] ({CH2CO}-NYDWL[Bip][Ile(3ξ)][NMeA][dL]N[Cha]VSCA[AEEA][Orn][Aun]-OH; thioether N-14),0.0543 µM
3,CC(C)C[C@H]1NC(=O)[C@H](C)N(C)C(=O)[C@H](Cc2ccc(C(=O)O)cc2)NC(=O)[C@H](Cc2ccc(-c3ccccc3)cc2)NC(=O)[C@H](Cc2ccc(C(=O)O)cc2)NC(=O)[C@H](Cc2cccc(C(F)(F)F)c2)NC(=O)[C@H](CC(=O)O)NC(=O)[C@H](Cc2ccc(OCC(=O)O)cc2)NC(=O)[C@H](CN2CCOCC2)NC(=O)CSC[C@@H](C(=O)N[C@@H](CCN)C(=O)NCCOCCOCC(=O)N[C@@H](CCC(=O)NCCOCCOCC(=O)NCCCCCCCCCCCCC(=O)O)C(=O)O)NC(=O)[C@H](CO)NC(=O)[C@H](C(C)(C)O)NC(=O)[C@H](CC2CCCCC2)NC(=O)[C@H](CCN)NC1=O [Example 1180] ({CH2CO}-[Ala(morpholin-4-yl)]Y(Carboxymethyl)D[Phe(3-CF3)][Phe(4-COOH)][Bip][Phe(4-COOH)][NMeA][dL][Dab][Cha][Val(3-OH)]SC[Dab][AEEA][γGlu][AEEA]-{NH(CH2)12COOH}; thioether N-14),0.0918 µM
4,Cc1cccc(C[C@@H]2NC(=O)[C@H](CC(=O)O)NC(=O)[C@H](Cc3ccc(OCC(=O)O)cc3)NC(=O)[C@H](C(C)O)NC(=O)CSC[C@@H](C(=O)NCCOCCOCC(=O)NCCCCCCCCCCC(=O)O)NC(=O)[C@H](C(C)O)NC(=O)[C@H](C(C)C)NC(=O)[C@H](CC3CCCCC3)NC(=O)[C@H](CCN)NC(=O)[C@@H](CC(C)C)NC(=O)[C@H](C)N(C)C(=O)[C@H](Cc3ccc(OCC(=O)O)cc3)NC(=O)[C@H](Cc3ccc(-c4ccccc4)cc3)NC(=O)[C@H](Cc3ccc(C(=O)O)cc3)NC2=O)c1 (stereo partly drawn) [Example 2343] ({CH2CO}-[Thr(3ξ)]Y(Carboxymethyl)D[Phe(3-Me)][Phe(4-COOH)][Bip]Y(Carboxymethyl)[NMeA][dL][Dab][Cha]V[Thr(3ξ)]C[AEEA][Aun]-OH; thioether N-14),0.0517 µM
5,Cc1cccc(C[C@@H]2NC(=O)[C@H](CC(=O)O)NC(=O)[C@H](Cc3ccc(OCC(=O)O)cc3)NC(=O)[C@H](C(C)O)NC(=O)CSC[C@@H](C(=O)N(C)CC(=O)NCCCCCCCCCCC(=O)O)NC(=O)[C@H](CCC(N)=O)NC(=O)[C@H](C(C)C)NC(=O)[C@H](CC3CCCCC3)NC(=O)[C@H](CCN)NC(=O)[C@@H](CC(C)C)NC(=O)[C@H](C)N(C)C(=O)[C@H](C(C)C)NC(=O)[C@H](Cc3ccc(-c4ccccc4)cc3)NC(=O)[C@H](Cc3ccc(O)cc3)NC2=O)c1 (stereo partly drawn) [Example 2265] ({CH2CO}-[Thr(3ξ)]Y(Carboxymethyl)D[Phe(3-Me)]Y[Bip]V[NMeA][dL][Dab][Cha]VQC[Sar][Aun]-OH; thioether N-14),0.427 µM
6,CC(C)C[C@H]1NC(=O)[C@H](C)N(C)C(=O)[C@H](CCCNC(N)=O)NC(=O)[C@H](Cc2ccc(-c3ccccc3)cc2)NC(=O)[C@H](Cc2ccc(C(=O)O)cc2)NC(=O)[C@H](Cc2cccc(C(F)(F)F)c2)NC(=O)[C@H](CC(=O)O)NC(=O)[C@H](Cc2ccc(OCC(=O)O)cc2)NC(=O)[C@H](Cc2ccc(C(=O)O)cc2)NC(=O)CSC[C@@H](C(=O)N[C@@H](CCN)C(=O)NCCOCCOCC(=O)N[C@@H](CCC(=O)NCCOCCOCC(=O)NCCCCCCCCCCCCC(=O)O)C(=O)O)NC(=O)[C@H](CO)NC(=O)[C@H](C(C)(C)O)NC(=O)[C@H](CC2CCCCC2)NC(=O)[C@H](CCN)NC1=O [Example 1187] ({CH2CO}-[Phe(4-COOH)]Y(Carboxymethyl)D[Phe(3-CF3)][Phe(4-COOH)][Bip][Cit][NMeA][dL][Dab][Cha][Val(3-OH)]SC[Dab][AEEA][γGlu][AEEA]-{NH(CH2)12COOH}; thioether N-14),0.0377 µM
7,CC(=O)NCCCC[C@@H]1NC(=O)[C@H](C(C)C)NC(=O)[C@H](CC2CCCCC2)NC(=O)[C@H](CCN)NC(=O)[C@@H](CC(C)C)NC(=O)[C@H](C)N(C)C(=O)[C@H](CCC(N)=O)NC(=O)[C@H](Cc2ccc(-c3ccccc3)cc2)NC(=O)[C@H](C(C)C)NC(=O)[C@H](Cc2cccc(C)c2)NC(=O)[C@H](CC(=O)O)NC(=O)[C@H](Cc2ccc(OCC(=O)O)cc2)NC(=O)[C@H](Cc2ccc(OCC(=O)O)cc2)NC(=O)CSC[C@@H](C(=O)N[C@@H](CCN)C(=O)NCCCCCCCCCCC(=O)O)NC1=O [Example 2220] ({CH2CO}-Y(Carboxymethyl)Y(Carboxymethyl)D[Phe(3-Me)]V[Bip]Q[NMeA][dL][Dab][Cha]VK(Ac)C[Dab][Aun]-OH; thioether N-14),0.0101 µM
8,CCC(C)[C@@H]1NC(=O)[C@H](Cc2ccc(-c3ccccc3)cc2)NC(=O)[C@H](C(C)C)NC(=O)[C@H](Cc2c[nH]c3ccccc23)NC(=O)[C@H](CC(=O)O)NC(=O)[C@H](Cc2ccc(O)cc2)NC(=O)[C@H](Cc2ccncc2)NC(=O)CSC[C@@H](C(=O)N[C@@H](CN)C(=O)NCCOCCOCC(=O)NCCCCCCCCCCC(=O)O)NC(=O)[C@H](C(C)O)NC(=O)[C@H](C(C)C)NC(=O)[C@H](CC2CCCCC2)NC(=O)[C@H](CC(N)=O)NC(=O)[C@@H](CC(C)C)NC(=O)[C@H](C)N(C)C1=O (stereo partly drawn) [Example 2068] ({CH2CO}-[4Pal]YDWV[Bip][Ile(3ξ)][NMeA][dL]N[Cha]V[Thr(3ξ)]C[Dap][AEEA][Aun]-OH; thioether N-14),0.106 µM
9,Cc1cccc(C[C@@H]2NC(=O)[C@H](CC(=O)O)NC(=O)[C@H](Cc3ccc(C(=O)O)cc3)NC(=O)[C@H](Cc3ccncc3)NC(=O)CSC[C@@H](C(=O)N[C@@H](CCN)C(=O)NCCCCCCCCCCC(=O)O)NC(=O)[C@H](CO)NC(=O)[C@H](C(C)(C)O)NC(=O)[C@H](CC3CCCCC3)NC(=O)[C@H](CCN)NC(=O)[C@@H](CC(C)C)NC(=O)[C@H](C)N(C)C(=O)[C@H](Cc3ccc(OCC(=O)O)cc3)NC(=O)[C@H](Cc3ccc(-c4ccccc4)cc3)NC(=O)[C@H](Cc3cccc(F)c3)NC2=O)c1 [Example 1309] ({CH2CO}-[4Pal][Phe(4-COOH)]D[Phe(3-Me)][Phe(3-F)][Bip]Y(Carboxymethyl)[NMeA][dL][Dab][Cha][Val(3-OH)]SC[Dab][Aun]-OH; thioether N-14),0.0127 µM
10,Cc1cccc(C[C@@H]2NC(=O)[C@H](CC(=O)O)NC(=O)[C@H](Cc3ccc(OCC(=O)O)cc3)NC(=O)[C@H](C(C)O)NC(=O)CSC[C@@H](C(=O)NCCOCCOCC(=O)NCCCCCCCCCCC(=O)O)NC(=O)[C@H](C(C)O)NC(=O)[C@H](C(C)C)NC(=O)[C@H](CC3CCCCC3)NC(=O)[C@H](CCN)NC(=O)[C@@H](CC(C)C)NC(=O)[C@H](C)N(C)C(=O)[C@H](Cc3ccc(OCC(=O)O)cc3)NC(=O)[C@H](Cc3ccc(-c4ccccc4)cc3)NC(=O)[C@H](CCCCC(N)=O)NC2=O)c1 (stereo partly drawn) [Example 2345] ({CH2CO}-[Thr(3ξ)]Y(Carboxymethyl)D[Phe(3-Me)][hhGln][Bip]Y(Carboxymethyl)[NMeA][dL][Dab][Cha]V[Thr(3ξ)]C[AEEA][Aun]-OH; thioether N-14),0.0675 µM

# Same assay, conditions: PE-labeled PD-L1-Ig 20 nM final, Jurkat-hPD-1 cells; read-out: Jurkat HPD1 PDL1 IC50
row,Compound,IC50
1,CCC[C@@H]1NC(=O)[C@H](C(C)(C)O)NC(=O)[C@H](CC2CCCCC2)NC(=O)[C@H](CCN)NC(=O)[C@@H](CC(C)C)NC(=O)[C@H](C)N(C)C(=O)[C@H](Cc2ccc(C(=O)O)cc2)NC(=O)[C@H](Cc2ccc(-c3ccccc3)cc2)NC(=O)[C@H](Cc2ccc(C(=O)O)cc2)NC(=O)[C@H](Cc2cccc(C)c2)NC(=O)[C@H](CC(=O)O)NC(=O)[C@H](Cc2ccc(C(=O)O)cc2)NC(=O)[C@H](Cc2ccc(C(F)(F)F)cc2)NC(=O)CSC[C@@H](C(=O)N[C@@H](CCN)C(=O)NCCCCCCCCCCC(=O)O)NC1=O [Example 2583] ({CH2CO}-[Phe(4-CF3)][Phe(4-COOH)]D[Phe(3-Me)][Phe(4-COOH)][Bip][Phe(4-COOH)][NMeA][dL][Dab][Cha][Val(3-OH)][Nva]C[Dab][Aun]-OH; thioether N-14),0.0375 µM
2,Cc1cccc(C[C@@H]2NC(=O)[C@H](CC(=O)O)NC(=O)[C@H](Cc3ccc(OCC(=O)O)cc3)NC(=O)[C@H]([C@@H](C)O)NC(=O)CSC[C@@H](C(=O)N[C@@H](CCN)C(=O)NCCOCCOCC(=O)NCCCCCCCCCCCC(=O)O)NC(=O)C3(CC3)NC(=O)[C@H](C(C)C)NC(=O)[C@H](CC3CCCCC3)NC(=O)[C@H](CCN)NC(=O)[C@@H](CC(C)C)NC(=O)[C@H](C)N(C)C(=O)[C@H](Cc3ccc(OCC(=O)O)cc3)NC(=O)[C@H](Cc3ccc(-c4ccccc4)cc3)NC(=O)[C@H](Cc3ccc(OCC(=O)O)cc3)NC2=O)c1 [Example 2672] ({CH2CO}-TY(Carboxymethyl)D[Phe(3-Me)]Y(Carboxymethyl)[Bip]Y(Carboxymethyl)[NMeA][dL][Dab][Cha]V[Ac3c]C[Dab][AEEA][12Ado]-OH; thioether N-14),0.2 µM
